Results on 4 molecules are retold here after US11179394B2, “Method for treating cancer using a combination of Chk1 and ATR inhibitors” (priority 2014, dated 2021).

Some results are limits rather than exact numbers.

In series [1] the test system is MX-1 breast cancer cell line. The note with it: AZD7762 25 mg/kg intraperitoneal, VE-822 60 mg/kg oral gavage; for survival: combination P<0.05.
Method: (§2) In the case of the MX-1 model, 2 million cells in 50% matrigel were injected in nude mice and for the H460 model 5 million cells in PBS were injected in nude mice. After 8-9 days of implantation animals were divided into 4 groups of 5 animals based on tumor size; with mean tumor volume of 130 mm^3. […] Body weight and tumor volume were measured twice a week. Tumor volume was measured with caliper and shown as mean±S.E.M (length×width×width×0.52).
For series [2], the system named is H460 lung cancer cell line. To be noted: AZD7762 25 mg/kg intraperitoneal, VE-822 60 mg/kg oral gavage; for survival: combination vs monotherapy P<0.01; for tumor size / tumor growth: combination vs monotherapy P<0.05.
Method: as §2
Series [3] deals with DLD-1 cells expressing the inactive mutant form of Chk1 (S317A/-). Nature of the series: Clonogenic survival assay. Type of series: cell-based. The note with it: Homo sapiens; DLD-1 Chk1 S317A/-; 1 μM VE-821; read-out: viable cells remaining. The procedure: (§1) 500 cells of U2OS, MCF-7, DLD-1, DLD-1 Chk-1^S317A/-, DLD-1 Chk-1^+/−, DLD-1 ATR^S/S and 1000 cells of VH-10 were plated on 10 cm plate. After 5 hr. of incubation (5% CO2 at 37° C.) vehicle (0.05% DMSO max) various concentration of ATR inhibitor VE-821 were directly added to the media containing plate and incubated for 72 hr. At the end of 72 hr. of incubation, vehicle and drug containing media was replaced with fresh media and further incubated for another 5-8 days before plates were fixed and stained with 4% methylene blue in MeOH and colonies were counted manually. Each data point represents a triplicate data set±SEM.

A further series relates to MCF-7 cancer cells. Nature of the series: Clonogenic survival assay. The class given is cell-based. The note with it: 1 μM VE-821, 72 hr, AZD7762 20 nM where combined. The procedure:
as §1

A further series has as its system U2OS cancer cells. Nature of the series: Clonogenic survival assay. The class given is cell-based. To be noted: 1 μM VE-821, 72 hr, AZD7762 20 nM where combined. The procedure:
as §1

Another series concerns Parental DLD-1 cells. As to the kind of experiment: cells. Type of series: cell-based. To be noted: Homo sapiens, DLD-1, read-out: cell viability. Here is the method:
as §1

Another series relates to HA1EB-GFP parental cells. As to the kind of experiment: Cell viability by resazurin staining. The class given is cell-based. To be noted: 72 hours, VE-821 up to 5 μM, AZD7762 30 nM. For orientation: Resazurin is reduced to fluorescent resorufin, in cell work by metabolically active cells.
In a further series the target is ATR (Homo sapiens, UniProt Q13535). The note with it: 1 μM VE-821; cited from earlier work.
Sequence of ATR (Q13535 whole entry): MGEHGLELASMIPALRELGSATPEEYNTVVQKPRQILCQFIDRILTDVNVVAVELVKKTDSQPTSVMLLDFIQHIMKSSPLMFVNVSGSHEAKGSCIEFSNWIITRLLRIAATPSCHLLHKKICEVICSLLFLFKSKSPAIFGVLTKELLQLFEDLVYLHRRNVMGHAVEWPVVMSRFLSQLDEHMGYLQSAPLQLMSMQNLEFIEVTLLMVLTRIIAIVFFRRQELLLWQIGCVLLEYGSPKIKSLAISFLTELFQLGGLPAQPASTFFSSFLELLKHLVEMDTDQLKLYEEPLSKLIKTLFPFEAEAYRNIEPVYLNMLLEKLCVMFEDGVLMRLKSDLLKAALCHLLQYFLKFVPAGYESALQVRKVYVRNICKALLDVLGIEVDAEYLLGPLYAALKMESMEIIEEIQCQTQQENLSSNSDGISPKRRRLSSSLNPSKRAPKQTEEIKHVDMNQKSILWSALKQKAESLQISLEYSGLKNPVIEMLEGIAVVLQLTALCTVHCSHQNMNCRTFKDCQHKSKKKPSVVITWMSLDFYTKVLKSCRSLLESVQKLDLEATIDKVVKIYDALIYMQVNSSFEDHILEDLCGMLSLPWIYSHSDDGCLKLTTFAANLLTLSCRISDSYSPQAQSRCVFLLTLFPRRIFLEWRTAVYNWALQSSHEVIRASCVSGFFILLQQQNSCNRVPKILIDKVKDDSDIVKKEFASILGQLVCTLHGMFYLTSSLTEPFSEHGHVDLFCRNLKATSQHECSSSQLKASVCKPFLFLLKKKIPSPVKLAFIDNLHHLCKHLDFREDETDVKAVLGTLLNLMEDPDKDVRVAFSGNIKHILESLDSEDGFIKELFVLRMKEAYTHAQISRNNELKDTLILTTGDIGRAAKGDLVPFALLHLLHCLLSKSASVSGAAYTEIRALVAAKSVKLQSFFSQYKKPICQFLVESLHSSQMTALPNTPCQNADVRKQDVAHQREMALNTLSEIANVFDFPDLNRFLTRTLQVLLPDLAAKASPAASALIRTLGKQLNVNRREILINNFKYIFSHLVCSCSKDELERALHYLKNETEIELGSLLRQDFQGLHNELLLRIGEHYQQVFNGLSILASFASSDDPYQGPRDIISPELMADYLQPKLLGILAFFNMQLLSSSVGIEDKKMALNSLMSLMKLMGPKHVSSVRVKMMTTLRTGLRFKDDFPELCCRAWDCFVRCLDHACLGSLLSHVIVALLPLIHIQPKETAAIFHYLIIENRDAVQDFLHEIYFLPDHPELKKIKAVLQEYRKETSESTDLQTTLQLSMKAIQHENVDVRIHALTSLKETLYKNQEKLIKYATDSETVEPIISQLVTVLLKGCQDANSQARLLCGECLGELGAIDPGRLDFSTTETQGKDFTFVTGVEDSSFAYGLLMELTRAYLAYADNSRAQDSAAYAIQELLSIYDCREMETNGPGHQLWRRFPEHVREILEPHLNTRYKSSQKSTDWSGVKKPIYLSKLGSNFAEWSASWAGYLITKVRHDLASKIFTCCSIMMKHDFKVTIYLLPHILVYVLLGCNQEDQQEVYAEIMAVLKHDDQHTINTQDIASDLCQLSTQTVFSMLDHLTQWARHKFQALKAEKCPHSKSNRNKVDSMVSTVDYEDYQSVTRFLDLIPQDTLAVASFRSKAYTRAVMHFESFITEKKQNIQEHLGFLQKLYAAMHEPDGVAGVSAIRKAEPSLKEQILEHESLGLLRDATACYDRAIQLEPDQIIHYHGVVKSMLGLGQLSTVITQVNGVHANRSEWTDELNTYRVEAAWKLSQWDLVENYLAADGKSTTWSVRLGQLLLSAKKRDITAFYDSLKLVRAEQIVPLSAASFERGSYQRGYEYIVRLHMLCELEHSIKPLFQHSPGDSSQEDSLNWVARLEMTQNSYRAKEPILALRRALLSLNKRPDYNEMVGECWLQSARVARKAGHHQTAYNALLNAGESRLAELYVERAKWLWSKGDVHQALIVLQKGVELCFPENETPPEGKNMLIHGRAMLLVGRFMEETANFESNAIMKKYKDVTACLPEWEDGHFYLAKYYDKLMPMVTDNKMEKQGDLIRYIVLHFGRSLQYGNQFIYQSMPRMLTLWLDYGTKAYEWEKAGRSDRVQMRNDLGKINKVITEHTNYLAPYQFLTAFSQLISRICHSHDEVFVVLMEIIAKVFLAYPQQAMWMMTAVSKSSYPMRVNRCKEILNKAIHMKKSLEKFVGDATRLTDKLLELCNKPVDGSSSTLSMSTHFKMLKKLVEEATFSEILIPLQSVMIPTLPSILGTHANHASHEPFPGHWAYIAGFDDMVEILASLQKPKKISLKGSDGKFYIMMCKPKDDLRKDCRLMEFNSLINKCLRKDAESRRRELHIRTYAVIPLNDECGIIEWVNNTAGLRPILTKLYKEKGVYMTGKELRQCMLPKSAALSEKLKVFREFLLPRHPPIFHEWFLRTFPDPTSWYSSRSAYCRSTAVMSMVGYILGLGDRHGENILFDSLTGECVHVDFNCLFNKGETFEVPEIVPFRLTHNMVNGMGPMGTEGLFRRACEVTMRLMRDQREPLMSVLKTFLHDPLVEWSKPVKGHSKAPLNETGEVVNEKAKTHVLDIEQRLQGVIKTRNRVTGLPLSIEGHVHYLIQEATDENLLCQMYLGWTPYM
Sequence of ATR (Q8WXE1 whole entry partner): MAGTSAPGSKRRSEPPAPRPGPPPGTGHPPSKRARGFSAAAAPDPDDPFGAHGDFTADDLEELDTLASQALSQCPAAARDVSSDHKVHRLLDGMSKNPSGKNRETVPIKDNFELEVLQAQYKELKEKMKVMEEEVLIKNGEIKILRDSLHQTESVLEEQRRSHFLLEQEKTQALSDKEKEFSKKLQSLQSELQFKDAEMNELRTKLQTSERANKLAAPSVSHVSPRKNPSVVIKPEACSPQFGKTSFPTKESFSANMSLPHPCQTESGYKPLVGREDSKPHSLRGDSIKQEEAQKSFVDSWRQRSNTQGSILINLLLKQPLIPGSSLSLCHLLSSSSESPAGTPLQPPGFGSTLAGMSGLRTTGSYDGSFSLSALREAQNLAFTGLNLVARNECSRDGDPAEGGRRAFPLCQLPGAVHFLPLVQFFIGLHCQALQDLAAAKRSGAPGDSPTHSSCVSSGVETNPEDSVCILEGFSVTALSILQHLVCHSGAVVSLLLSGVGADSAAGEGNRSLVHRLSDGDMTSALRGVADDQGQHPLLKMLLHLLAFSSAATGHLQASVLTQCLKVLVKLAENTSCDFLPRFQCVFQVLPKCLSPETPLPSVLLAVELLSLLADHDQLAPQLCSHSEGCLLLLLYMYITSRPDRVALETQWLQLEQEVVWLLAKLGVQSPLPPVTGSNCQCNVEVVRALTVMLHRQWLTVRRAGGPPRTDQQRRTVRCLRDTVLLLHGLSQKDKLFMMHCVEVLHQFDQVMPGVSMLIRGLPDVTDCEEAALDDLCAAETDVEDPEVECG
The subject of series [4] is cMYC transformed cells, HA1EB-GFP-cMYC. Nature of the series: Cell viability by resazurin staining. To be noted: 72 hours, VE-821 up to 5 μM, AZD7762 30 nM.
The test system of series [5] is BJ RAS cells (BJ-SV40T transformed with activated H-RAS(G12V)). As to the kind of experiment: Cell viability by resazurin staining. To be noted: 72 hours, VE-821 up to 5 μM, AZD7762 30 nM.
Method: (§3) In addition, the impact of expression of the H-RAS oncogene was assessed in the BJ-SV40T cells transformed with activated H-RAS(G12V) (BJ RAS).
In another series the test system is U2OS cells. Nature of the series: Cleaved caspase-3 (apoptosis) with hydroxyurea. Type of series: cell-based. To be noted: 24 hr, hydroxyurea (2 mM) alone.
The next series deals with BJ-hTERT parental cells. Nature of the series: Cell viability by resazurin staining. The class given is cell-based. To be noted: 72 hours, AZD7762 30 nM.
Series [6] deals with BJ-SV40T cells (p53 and RB inactivated). Nature of the series: Cell viability by resazurin staining. To be noted: 72 hours, VE-821 up to 5 μM, AZD7762 30 nM.
Method: as §3

Method for BJ-hTERT parental cells: Referring to FIG. 2D, an isogenic cell pair was used to assess the impact of loss of p53 and RB on cell sensitivity to the combination of VE-821 and AZD7762 (BJ-hTERT parental cells vs BJ-SV40T cells expressing the Large Tumor Antigen which inactivates p53 and RB function). In addition, the impact of expression of the H-RAS oncogene was assessed in the BJ-SV40T cells transformed with activated H-RAS(G12V) (BJ RAS). Cells were treated with either VE-821 alone (at concentrations up to 5 μM), AZD7762 alone (30 nM) or the combination of VE-821 and AZD7762 for 72 hours.
Method for U2OS cells: Referring to FIG. 5, the impact of Chk1 inhibition by AZD7762 on cell apoptosis from treatment with the ATR inhibitor VE-821 and a representative DNA damaging agent, hydroxyl urea (2 mM), was assessed by measuring levels of cleaved caspase-3, a widely used marker of apoptosis. U2OS cells were treated for 24 hr. with the DNA damaging agent hydroxyurea and varied doses of AZD7762 and/or VE-821. Cells were subsequently stained with anti-cleavage caspase 3 and β actin antibodies and confocal microscopy used to take and quantify images. Data are presented as % cells positive for cleaved capsae-3.

With `CNCc1ccc(-c2cc(-c3nc(-c4ccc(S(=O)(=O)C(C)C)cc4)cnc3N)on2)cc1` [VE-822], in [1], the “tumor size / tumor growth” value is reported as “minimal impact” and the survival result is on record as “minimal impact”. For the same molecule, in [2], the survival entry is given as “minimal impact” and the “tumor size / tumor growth” value was “minimal impact”.

`CS(=O)(=O)c1ccc(-c2cnc(N)c(C(=O)Nc3ccccc3)n2)cc1` [VE-821]: the results for the viability at 1 µM (in series [3]; in the series with Parental DLD-1 cells) were below 3% and around 100%, respectively. The clonogenic survival with MCF-7 cancer cells and with U2OS cancer cells was 10-20% throughout. In addition, the effect on viability result in the series on HA1EB-GFP parental cells is on record as “Neither VE-821 nor AZD7762 had a marked effect”. In addition, the ATR activity inhibited entry at ATR is given as “about 50%”. Also, the values for the viable cells remaining in [4] and in [5] were around 40% and around 60%, respectively.

Regarding `NC(=O)NO` [hydroxyurea], in the series on U2OS cells, the “cells positive for cleaved caspase-3” value is below 0.5%.

As to `NC(=O)Nc1cc(-c2cccc(F)c2)sc1C(=O)N[C@H]1CCCNC1` [AZD7762, reference compound], the effect on viability result was “Neither VE-821 nor AZD7762 had a marked effect” with HA1EB-GFP parental cells and “did not have a marked effect” in the series with BJ-hTERT parental cells. For the same molecule, the “tumor size / tumor growth” value in series [1] is on record as “reduced tumor growth”; in [2], “minimal impact”. Moreover, the values for the survival result in series [1] and in series [2] were “no impact” and “minimal impact”, respectively. Also, the values for the viable cells remaining entry in series [4], in series [6] and in [5] were “did not impact the viability”, “did not have a marked effect” and “did not have a marked effect”, respectively.
